Data from paper PMC10999543, “Identification of kinase modulators as host-directed therapeutics against intracellular methicillin-resistant Staphylococcus aureus” (Frontiers in Cellular and Infection Microbiology, 2024).

What was measured:
[1] = tested on: AMPK; assay: Phosphorylation of ACC1 at Ser80 by flow cytometry (readout for AMPK activity); assay type: cell-based, human; conditions: MRSA-infected HeLa cells
Experimental: To determine the expression of the HER kinase family, cells were harvested using PBS + 5 mM EDTA and fixed in 1% paraformaldehyde for 20 min at RT. To determine phosphorylation of ACC1 at Ser80, cells were harvested by incubation in pre-warmed trypsin-EDTA, which was neutralized after 5 min with an equal volume of FBS, and fixed in 4% ultra-pure formaldehyde (Bio Trend, Cologne, Germany) for 20 min at RT. For intracellular staining, the cells were permeabilized in ice-cold methanol for 20 min. Subsequently, the cells were blocked in PBS + 0.5% bovine serum albumin + 0.005% NaN3 (both from Sigma-Aldrich; FACS buffer) + 5% human serum for 5 min. The cells were labelled with primary and secondary antibodies (listed in Supplementary Table S1 ) in FACS buffer. Samples were measured on the FACSLyric and analysed using FlowJo 10 (FlowJo LCC, Ashland, OR, USA).

[2] = tested on: HeLa, MelJuSo, A549, MCF7 and PMA-differentiated THP-1 cells; assay: Light microscopy of cell morphology (cytopathogenic effects); assay type: cell-based, human; conditions: for changes in cell morphology / cytopathogenic effects by light microscopy: 10 µM, HeLa, MelJuSo, A549, MCF7, THP-1 cells
[3] = tested on: A549 cells; assay type: cell-based, human; conditions: 10 µM
Experimental: (§1) Before harvesting or lysing the cells of the intracellular infection assays, the supernatant from the cells was collected to quantify LDH release by the cells using the LDH cytotoxicity detection kit (Roche, Merck, Darmstadt, Germany) according to the manufacturer’s instructions. Triton X-100 results in maximum LDH release by permeabilizing the cells and was used as positive control. Quantification was performed with the EnVision plate reader.

[4] = tested on: zebrafish embryos; assay: Zebrafish embryo toxicity test; assay type: in vivo; conditions: for further signs of toxicity in zebrafish embryos: serial dilutions; for concentration well tolerated in zebrafish embryos: wild type AB/TL
Experimental: All experiments with zebrafish were done on embryos or larvae up to 5 days post fertilization, which have not yet reached the free-feeding stage and which were of the wild type AB/TL line. Fertilized embryos were maintained at 28°C and kept in egg water containing 60 μg/ml Instant Ocean Sea Salt (Sera, Heinsberg Germany). Zebrafish embryos were dechorionated with Dumont #5 forceps (Fine Science Tools Inc., Foster City, CA, USA) at 24 hours post fertilization (hpf) and transferred to 96-wells plates with each well containing a single embryo. Subsequently, the embryos were treated with kinase inhibitors or DMSO at 30 hpf. The health status of the embryos was assessed at 120 hpf. Healthy embryos were given a health score of 5. Health points were withdrawn for each of the following symptoms: no responsiveness to physical stimulation, cranial malformations, oedema or tail malformations. Dead embryos were given a health score of 0.

[5] = tested on: planktonic MRSA cultures; assay: Bacterial growth assay in cell-free planktonic MRSA cultures (OD600); assay type: cell-based, Staphylococcus aureus; conditions: Supplementary Figure S5
Experimental: […] The absorbance was measured using an EnVision plate reader (PerkinElmer). The plates were incubated at 37°C overnight and the absorbance was measured again the next day. Real-time measurement of bioluminescence by the MRSA-lux strain was performed in a white flat-bottom 96-wells plate using a SpectraMax i3x plate reader and an integration time set at 9000 ms.

[6] = tested on: intracellular MRSA in MelJuSo cells; assay: Gentamicin protection assay with CFU count in MRSA-infected MelJuSo cells; assay type: cell-based, Staphylococcus aureus; conditions: 10 µM, n=7
Experimental: (§2) The cells were resuspended in cell culture medium without antibiotics, seeded with 10,000 cells/well into Costar flat-bottom 96-well plates (Corning, Amsterdam, the Netherlands), and were incubated overnight at 37°C/5% CO2. The next day, the bacteria were centrifuged at ≥1800 g for 15 min and resuspended in cold PBS + 5 mM ethylenediaminetetraacetic acid (EDTA). The number of CFUs present in the bacterial suspension was estimated from the optical density at 600 nm (OD600) by assuming 8x10^8 CFUs to be present in a bacterial suspension with OD600 = 1, based on prior titrations. The bacterial suspension was diluted in cell culture medium without antibiotics and added to the cells. Accuracy of the multiplicity of infection (MOI) was validated by plating serial dilutions of the MRSA inoculums on Difco TS agar plates (BD Biosciences). The calculated mean MOI throughout all experiments was 6.8 ± 4.6 (mean ± SD). Infected cells were centrifuged for 3 min at 150 g and incubated for 1 hour at 37°C/5% CO2. Next, the cells were incubated with fresh cell culture medium supplemented with 30 µg/ml gentamicin sulphate (Lonza BioWhittaker, Basel, Switzerland) for 15 min at 37°C/5% CO2 to kill residual extracellular bacteria. Infected cells were incubated overnight at 37°C/5% CO2 in cell culture medium in the presence of kinase inhibitors and 5 µg/ml gentamicin sulphate-containing medium to prevent the growth of extracellular bacteria. The solvent of the compounds, DMSO, was used at equal % v/v as a negative control. For the screen, each compound was tested in triplicate, on separate cell culture plates, resulting in triplicate values for each kinase inhibitor.
Infected cells were lysed in sterile water + 0.05% UltraPure SDS solution (Invitrogen, ThermoFisher Scientific) to release intracellular bacteria. Bacterial suspensions and lysates of cells infected with MRSA were 5-fold serially diluted and 10-μl drops were plated on square TS agar plates. The plates were left to dry and incubated overnight at 37°C/5% CO2.

[7] = tested on: other strains of S. aureus; assay: CFU count in HeLa cells infected with other strains of S. aureus; assay type: cell-based, Staphylococcus aureus; conditions: Supplementary Figure S8A
Experimental: as §2, with “Infected cells were incubated overnight at 37°C/5% CO2 in cell culture medium in the presence of kinase inhibitors and 5 µg/ml gentamicin sulphate-containing medium to prevent the growth of extracellular bacteria. The solvent of the compounds, DMSO, was used at equal % v/v as a negative control. For the screen, each compound was tested in triplicate, on separate cell culture plates, resulting in triplicate values for each kinase inhibitor.” left out

[8] = tested on: bioluminescent strain of MRSA; assay: Real-time bioluminescence of MRSA-lux after infection of HeLa cells; assay type: cell-based, Staphylococcus aureus; conditions: 10 µM, infected HeLa cells
Experimental: The cells were resuspended in cell culture medium without antibiotics, seeded with 10,000 cells/well into Costar flat-bottom 96-well plates (Corning, Amsterdam, the Netherlands), and were incubated overnight at 37°C/5% CO2. The next day, the bacteria were centrifuged at ≥1800 g for 15 min and resuspended in cold PBS + 5 mM ethylenediaminetetraacetic acid (EDTA). The number of CFUs present in the bacterial suspension was estimated from the optical density at 600 nm (OD600) by assuming 8x10^8 CFUs to be present in a bacterial suspension with OD600 = 1, based on prior titrations. The bacterial suspension was diluted in cell culture medium without antibiotics and added to the cells. […] The calculated mean MOI throughout all experiments was 6.8 ± 4.6 (mean ± SD). […]
MRSA cultures at a concentration corresponding to an absorbance of 0.1 at 600 nm were incubated with the kinase inhibitors at 10 μM in flat-bottom 96-well plates. The absorbance was measured using an EnVision plate reader (PerkinElmer). The plates were incubated at 37°C overnight and the absorbance was measured again the next day. Real-time measurement of bioluminescence by the MRSA-lux strain was performed in a white flat-bottom 96-wells plate using a SpectraMax i3x plate reader and an integration time set at 9000 ms.

[9] = tested on: MCF7 cells; assay type: cell-based, human; conditions: 10 µM
Experimental: as §1

[10] = tested on: intracellular MRSA in PMA-differentiated THP-1 cells; assay: Gentamicin protection assay with CFU count in MRSA-infected PMA-differentiated THP-1 cells; assay type: cell-based, Staphylococcus aureus; conditions: 10 µM, n=6
Experimental: as §2, with “Infected cells were incubated overnight at 37°C/5% CO2 in cell culture medium in the presence of kinase inhibitors and 5 µg/ml gentamicin sulphate-containing medium to prevent the growth of extracellular bacteria. The solvent of the compounds, DMSO, was used at equal % v/v as a negative control. For the screen, each compound was tested in triplicate, on separate cell culture plates, resulting in triplicate values for each kinase inhibitor.” left out

[11] = tested on: intracellular MRSA in A549 cells; assay: Gentamicin protection assay with CFU count in MRSA-infected A549 cells; assay type: cell-based, Staphylococcus aureus; conditions: 10 µM, n=7
Experimental: as §2, with “Infected cells were incubated overnight at 37°C/5% CO2 in cell culture medium in the presence of kinase inhibitors and 5 µg/ml gentamicin sulphate-containing medium to prevent the growth of extracellular bacteria. The solvent of the compounds, DMSO, was used at equal % v/v as a negative control. For the screen, each compound was tested in triplicate, on separate cell culture plates, resulting in triplicate values for each kinase inhibitor.” left out

[12] = tested on: HER4; design: method as in Elkins et al., 2016; conditions: PKIS1, Caliper assay, ref Elkins et al., 2016; cited from earlier work

With `COc1ccc2[nH]c3c4[nH]c5ccc(OC)cc5c4c4c(c3c2c1)C(=O)NC4=O` [GW296115X] the “ACC1 phosphorylation at Ser80” value [1] was “increased ACC1 phosphorylation”, the “changes in cell morphology / cytopathogenic effects by light microscopy” value [2] was “slight changes in cell morphology” and the “cell viability of MRSA-infected cells (LDH-release)” value [3] was “rescued the loss of viability”. For the same compound, the “further signs of toxicity in zebrafish embryos” value ([4]; 120 hpf) was “no further signs of toxicity were observed”, the “concentration well tolerated in zebrafish embryos” value ([4]; zebrafish, in vivo) was no more than 10 µM and the “direct antibiotic effects against MRSA” value ([5]; planktonic cultures) was “not the case”. The “reduction in bacterial burden (CFU)” value [6] was 88%, the “activity against other strains of S. aureus (CFU)” value [7] was “active” and the “effect on bioluminescent MRSA growth over time” value [8] was “acts rapidly”.
In the case of `CC(C)c1nc(-c2cccc(NS(=O)(=O)c3c(F)cccc3F)c2F)c(-c2ccnc(Nc3ccc(N4CCOCC4)nc3)n2)s1` [GSK2008607A], the “cytopathogenic effects in HeLa cells” value ([2]; 1 µM) was “cytopathogenic effects were already observed”, the “changes in cell morphology / cytopathogenic effects by light microscopy” value [2] was “cytopathogenic effects were observed” and the “cell viability of MRSA-infected cells (LDH-release)” value [9] was “significantly improved the overall survival”. The “embryos that died, of 15” value ([4]; 1 µM, 120 hpf) was “one”, the “symptoms of surviving zebrafish embryos” value ([4]; 3 and 10 µM, 120 hpf) was “oedema of the heart sac and yolk, as well as unresponsiveness to physical stimulation” and the zebrafish embryo mortality ([4]; 3 and 10 µM, treated 30 hpf, scored 120 hpf) was “caused zebrafish embryo mortality”. For the same compound, the “concentrations exhibiting toxicity in zebrafish embryos” value ([4]; zebrafish, in vivo) was no less than 1 µM, the “embryos that did not respond to physical stimulation, of 15” value ([4]; zebrafish, in vivo) was “another” and the “embryos with cranial malformations, of 15” value ([4]; zebrafish, in vivo) was “two”. For the same compound, the “embryos with oedema, of 15” value ([4]; zebrafish, in vivo) was “three”, the “effect on CFU counts” value [10] was “reductions in CFU counts” and the “reduction in bacterial burden (CFU)” value [6] was 81%. The “activity on bacterial burden (CFU)” value [11] was “not active”.
In the case of `O=S(=O)(CCNCc1ccc(-c2ccc3ncnc(Nc4ccc(OCc5cccc(F)c5)c(Cl)c4)c3c2)o1)c1ccccc1` [GW633459A], the “changes in cell morphology / cytopathogenic effects by light microscopy” value [2] was “not observed”, the “further signs of toxicity in zebrafish embryos” value ([4]; 120 hpf) was “no further signs of toxicity were observed” and the “concentration well tolerated in zebrafish embryos” value ([4]; zebrafish, in vivo) was no more than 10 µM. For the same compound, the “effect on CFU counts” value [10] was “reductions in CFU counts”, the “effect on planktonic MRSA growth (direct antibiotic effect)” value ([5]; up to 100 µM concentration) was “not observe any direct antibacterial effects” and the “reduction in bacterial burden (CFU)” value [6] was 81%. The “activity on bacterial burden (CFU)” value [11] was “not active” and the “% inhibition at 1 µM HER4” value [12] was 89%.
